The values below are quoted from earlier work in patent US20060287520A1, “Synthesis of salinosporamide A and analogues thereof” (priority 2005, published 2006).

Molecules are shown by their SMILES.

The conditions of data set [1]: read-out: in vitro cytotoxicity IC50; background statement; cell line not given.
For another data set, the system named is 20S proteasome. The following applies: times more potent than omuralide, same molecular target (20S proteasome).

In the case of `C[C@@]12OC(=O)[C@]1([C@@H](O)[C@@H]1C=CCCC1)NC(=O)[C@@H]2CCCl` [Salinosporamide A], in data set [1], the concentration for half-maximal inhibition (IC50) is around 10 nM. The “potency relative to omuralide (2)” value in the data set on 20S proteasome is given as “approximately 35 times”.

For orientation: IC50 means the concentration needed to halve the response being measured.
